From paper PMC8587849, “Antimicrobial and Anticancer Application of Silver(I) Dipeptide Complexes” (Molecules, 2021)
Like-named read-outs stand apart in the source and are kept apart here. Where a SMILES comes first, the peptide text is derived from it.

Columns and labels:
HeLa = test: MTS antiproliferative assay; assay type: cell-based, human; details: 72 h
Experimental: (§1) After 72 h of incubation, 10 µL of MTS was added to each well. […] IC50 values were calculated from MTS analyses.

MCF-7 = test: MTS antiproliferative assay; assay type: cell-based, human; details: 72 h
Experimental: as §1

BLM = test: MTS antiproliferative assay; assay type: cell-based, human; details: BLM; MTS, 72 h
Experimental: (§2) Cells were maintained in standard conditions with an atmosphere containing 5% CO2 at 37 °C.
as §1

MDA-MB-231 = test: MTS antiproliferative assay; assay type: cell-based, human; details: 72 h
Experimental: as §2, §1

HCT116 = test: MTS antiproliferative assay; assay type: cell-based, human; details: 72 h
Experimental: as §2, §1

Jurkat = test: MTS antiproliferative assay; assay type: cell-based, human; details: 72 h
Experimental: as §2, §1

BJ-5ta = test: MTS assay on fibroblasts; assay type: cell-based; details: BJ-5ta human skin fibroblasts, 72 h
Experimental: as §1

Jurkat cells = test: Cell cycle analysis by flow cytometry; assay type: cell-based, human; details: 72 h, treated with IC50
Experimental: (§3) Prior to each analysis, cells were washed in PBS, followed by resuspending in staining solution (0.5 mg/mL ribonuclease A, 0.2% final concentration Triton X-100, propidium iodide 0.025 mg/mL in 500 µL PBS) (all Sigma Aldrich), and incubated for 30 min at room temperature in the dark. For analysis of stained cells, a BD FACSCalibur flow cytometer (BD Bio-sciences) was used. A minimum of 1 × 10^4 events were analysed per analysis.

BLM cells = test: Cell cycle analysis by flow cytometry; assay type: cell-based, human; details: 48 h, treated with IC50
Experimental: as §3

MDA-MB-231 cells = test: Cell cycle analysis by flow cytometry; assay type: cell-based, human; details: 72 h, treated with IC50
Experimental: as §3

HCT116 cells = test: Cell cycle analysis by flow cytometry; assay type: cell-based, human; details: 72 h, treated with IC50
Experimental: as §3

[1] = test system: Microsporum gypseum CCM F-8342; test: Antifungal activity (filamentous fungi), macrodilution on solidified PDA; assay type: cell-based; details: M.gypseum; read-out: IC50 and MIC100 (class symbol)
Experimental: (§4) Cultures of bacteria (in Mueller-Hinton broth, MHB) and yeasts (in Sabouraud’s growth medium, SB) were incubated under shaking (250 rpm) at 37 °C. The growth of bacteria and yeasts was evaluated by measuring the absorbance of the growing cultures (A550) until the cultures reached the stationary growth phase. […] During culturing, the diameters of growing fungal colonies were measured at regular intervals [71, 72]. […] The final concentration of DMSO never exceeded 1.0 vol. % in the control or treated samples. […] The IC50 and MIC90 with respect to MIC80 values were evaluated from toxicity curves.

Candida albicans SC 5314 = test: Antifungal activity (yeast), macrodilution method; assay type: cell-based; details: C. albicans
Experimental: as §4

CT DNA–HO system = test: Fluorescence competitive binding with Hoechst 33258; set-up: species or system calf; details: displacement of Hoechst 33258 from CT DNA; 462 nm; 10 mM Tris-HCl pH 7.4
Experimental: The fluorescence competitive binding studies of silver(I) complexes with Hoechst 33 258 (HO) were performed on a Varian Cary Eclipse spectrophotometer. The emission spectra of DNA–HO were measured in the range of 400–550 nm using an excitation wavelength of 343 nm with a slit width of 5 nm for the excitation and 5 nm for the emission beam. […] Ksv quenching constant was determined according to the classical Stern-Volmer Equation (1) in [63, 75]:F0/F = 1 + KSV [Q](1) where F0 and F are the fluorescence intensities in the absence and the presence of the quencher at 462 nm, KSV is the Stern-Volmer quenching constant and [Q] is the concentration of the quencher.

[2] = test system: Escherichia coli (E. coli) CCM 3988; test: Antibacterial activity, macrodilution method; assay type: cell-based
Experimental: (§5) Cultures of bacteria (in Mueller-Hinton broth, MHB) and yeasts (in Sabouraud’s growth medium, SB) were incubated under shaking (250 rpm) at 37 °C. The growth of bacteria and yeasts was evaluated by measuring the absorbance of the growing cultures (A550) until the cultures reached the stationary growth phase. […] The final concentration of DMSO never exceeded 1.0 vol. % in the control or treated samples. […] The IC50 and MIC90 with respect to MIC80 values were evaluated from toxicity curves.

A.flavus = test: Antifungal activity (filamentous fungi); assay type: cell-based; details: read-out: IC50 and MIC100 (class symbol)
Experimental: as §4

[3] = test system: Rhizopus oryzae CCM F-8284; test: Antifungal activity (filamentous fungi), macrodilution on solidified PDA; assay type: cell-based
Experimental: as §4

[4] = test system: methicillin-resistant Staphylococcus aureus L12; test: Antibacterial activity, macrodilution method; assay type: cell-based
Experimental: as §5

S. aureus biofilm = test: Influence on S. aureus biofilm formation, crystal violet staining; assay type: cell-based; details: for A570 (biofilm, crystal violet): control A570 = 0.47; for I: biofilm intensity: control strong
Experimental: The biofilm was qualified by the crystal violet staining method. Briefly, overnight cultures of bacteria S.aureus (in MHB) and yeasts C.parapsislosis (in SB) were prepared. The fresh prepared growth media MHB and SB were inoculated with the overnight culture for a final concentration of 5 × 10^6 cells mL^−1. The microbial biofilm was formed in 96-well microplates for adherent cells. […] Prepared cultures were incubated for 2 h at 37 °C. […] The treatment with DMSO (solvent) alone served as a control. The inoculated microplates were incubated at 37 °C for the next 46 h. […] Microplates with mature biofilm were decanted and washed using 200 μL of saline solution. The plate was left for 15 min to dry completely at laboratory temperature. Then, 110 μL of 0.4% crystal violet dye was added to each well, and the plate was incubated for 15 min at laboratory temperature. After the decantation, the plate was washed 3 times with 200 μL of saline solution. Then, 200 μL of 96% ethanol was added. The microplate was left to incubate for 15 min at laboratory temperature. After the transfer of the well content to a clean microplate, the absorbance (570 nm) of released crystal violet (proportionate to biofilm cell density) was measured,, and the values were evaluated as weak biofilm formation A570 <0.1; 0.199>, medium biofilm formation A570 <0.2; 0.3>, strong biofilm formation A570 <0.301; 0.999>, or very strong biofilm formation A570 ≥ 1.00.

[5] = test system: Staphylococcus aureus CCM 3953; test: Antibacterial activity, macrodilution method; assay type: cell-based; details: S. aureus
Experimental: as §5

CT DNA = test: UV-Vis absorption titration with CT DNA; assay type: binding, calf; details: 0.01 M Tris-HCl pH 7.4; complex 7.85 × 10^−5 M
Experimental: UV–vis spectra were measured in 0.01 M Tris-HCl buffer (pH 7.4) using a Varian Cary 100 Bio spectrophotometer in the range of 230–320 nm and recorded at room temperature (24 °C) using a quartz cuvette of 1 cm path length. The concentration of investigated Ag(I) complexes was 7.85 × 10^−5 M. During the titration, an aliquot of buffered CT DNA solution was added to each cuvette (sample and reference) to eliminate the absorbance of DNA itself. The DNA concentration per nucleotide was determined by absorption spectroscopy using the molar absorption coefficient (6600 M^−1cm^−1) at 260 nm.

[6] = test system: Alternaria alternata CCM F-128; test: Antifungal activity (filamentous fungi), macrodilution on solidified PDA; assay type: cell-based; details: A. alternata
Experimental: as §4

[7] = test system: Candida parapsilosis ATCC 22019; test: Antifungal activity (yeast), macrodilution method; assay type: cell-based; details: C. parapsilosis
Experimental: as §5

[8] = test system: Staphylococcus epidermidis CCM 7221; test: Antibacterial activity, macrodilution method; assay type: cell-based; details: S.epidermidis
Experimental: as §5

[9] = read-out: IC50 and MIC100 (class symbol)

`N.N.[Cl][Pt][Cl]` [cisPt, cisplatin] showed an IC50 (HeLa) of 35.4 µM, an IC50 (MCF-7) of 29.7 µM and an IC50 (BLM) of 29.5 µM. The IC50 (MDA-MB-231) was 7.1 µM, the IC50 (HCT116) was 7.4 µM and the IC50 (Jurkat) was 6.3 µM. For the same compound, the IC50 (BJ-5ta) was 37.9 µM.

In the case of [Ag(GlyGly)]n(NO3)n [AgGlyGly], the “cells in G2/M” value (Jurkat cells) is reported as 8.9 ± 0.1%, the “cells in S” value (Jurkat cells) is reported as 11.1 ± 0.8% and the “cells in G2/M” value (BLM cells) is reported as 32.7 ± 2.4%. The “cells in S” value (BLM cells) was 15.3 ± 1.5%, the “cells in G2/M” value (MDA-MB-231 cells) was 14.9 ± 0.1% and the “cells in S” value (MDA-MB-231 cells) was 14.4 ± 0.1%. For the same compound, the “cells in G2/M” value (HCT116 cells) was 7.1 ± 2.3%, the “cells in S” value (HCT116 cells) was 9.8 ± 0.1% and the IC50 (HeLa) was 38.3 µM. The IC50 (MCF-7) was 9 µM, the IC50 [1] was greater than 100 µM and the IC50 (Candida albicans SC 5314) was 70 µM. The MIC80 (Candida albicans SC 5314) was 100 µM, the “KSV (Stern-Volmer quenching constant)” value (CT DNA–HO system) was 4.51 ± 0.05 × 10^4 M^−1 and the IC50 [2] was 6 µM. It also gave an MIC90 [2] of 10 µM, an IC50 (A.flavus) greater than 100 µM and an IC50 ([3]; read-out: IC50) of 30 µM. The MIC100 ([3]; suffix s = fungistatic) was 50 µM, the IC50 (BLM) was 21.2 µM and the IC50 (MDA-MB-231) was 13 µM. It also gave an IC50 (HCT116) of 34.5 µM, an IC50 (Jurkat) of 14.8 µM and an IC50 ([4]; S. aureus L12 (MRSA)) of 15 µM. For the same compound, the MIC90 ([4]; S. aureus L12 (MRSA)) was 38 µM, the “A570 (biofilm, crystal violet)” value (S. aureus biofilm; complex concentration 5 µM) was 0.72 and the “I: biofilm intensity” value (S. aureus biofilm; complex concentration 5 µM) was “strong (strong biofilm formation A570 <0.301; 0.999>)”. The “A570 (biofilm, crystal violet)” value (S. aureus biofilm; complex concentration 10 µM) was 0.39, the “I: biofilm intensity” value (S. aureus biofilm; complex concentration 10 µM) was “strong (strong biofilm formation A570 <0.301; 0.999>)” and the “A570 (biofilm, crystal violet)” value (S. aureus biofilm; complex concentration 25 µM) was 0.26. For the same compound, the “A570 (biofilm, crystal violet)” value (S. aureus biofilm; complex concentration 50 µM) was 0.22, the “A570 (biofilm, crystal violet)” value (S. aureus biofilm; complex concentration 100 µM) was 0.28 and the “I: biofilm intensity” value (S. aureus biofilm; complex concentration 100 µM) was “medium (medium biofilm formation A570 <0.2; 0.3>)”. For the same compound, the IC50 [5] was 12 µM, the MIC90 [5] was 22 µM and the Hypochromism (CT DNA) was 20.1%. For the same compound, the “Δλmax (red shift on addition of CT DNA)” value (CT DNA) was 22 nm, the IC50 ([6]; read-out: IC50) was 71 µM and the MIC100 ([6]; suffix s = fungistatic) was greater than 100 µM. For the same compound, the IC50 (BJ-5ta) was 47.1 µM, the IC50 [7] was 30 µM and the MIC80 [7] was 70 µM. For the same compound, the IC50 [8] was 10 µM and the MIC90 [8] was 20 µM.

`C[C@H](NC(=O)CN)C(=O)O` [HGlyAla, Glycyl-L-Alanine, reference compound] (H-Gly-Ala-OH) gave an IC50 (HeLa) greater than 300 µM, an IC50 (MCF-7) greater than 300 µM and an IC50 [1] greater than 2000 µM. The “IC50 and MIC80 (class symbol)” value (Candida albicans SC 5314) was “N (N- not active IC50 and MIC values > 2 mmol.l-1)”, the “IC50 and MIC90 (class symbol)” value ([2]; free ligands) was “N (N- not active IC50 and MIC90 values > 2 mmol.l-1)” and the IC50 (A.flavus) was greater than 2000 µM. The IC50 [3, 9] was greater than 2000 µM, the IC50 (BLM) was greater than 300 µM and the IC50 (MDA-MB-231) was greater than 300 µM. The IC50 (HCT116) was greater than 300 µM, the IC50 (Jurkat) was greater than 300 µM and the “IC50 and MIC90 (class symbol)” value ([4]; S. aureus L12, free ligands) was “N (N- not active IC50 and MIC90 values > 2 mmol.l-1)”. For the same compound, the “IC50 and MIC90 (class symbol)” value ([5]; free ligands) was “N (N- not active IC50 and MIC90 values > 2 mmol.l-1)”, the IC50 [6, 9] was greater than 2000 µM and the IC50 (BJ-5ta) was greater than 300 µM. For the same compound, the “IC50 and MIC80 (class symbol)” value [7] was “N (N- not active IC50 and MIC values > 2 mmol.l-1)” and the “IC50 and MIC90 (class symbol)” value ([8]; free ligands) was “N (N- not active IC50 and MIC90 values > 2 mmol.l-1)”.

`O=[N+]([O-])[O-].[Ag+]` [AgNO3, silver(I) nitrate] showed an IC50 (HeLa) of 45.3 µM, an IC50 (MCF-7) of 13.2 µM and an IC50 (BLM) of 31.5 µM. It also gave an IC50 (MDA-MB-231) of 25.9 µM, an IC50 (HCT116) of 21.8 µM and an IC50 (Jurkat) of 6.6 µM. It also gave an IC50 (BJ-5ta) of 24.3 µM.
